From patent US20160280651A1, “COMPOUNDS THAT INDUCE ABA RESPONSES” (THE REGENTS OF THE UNIVERSITY OF CALIFORNIA, priority 2013, published 2016)

Columns and labels:
[1] = system: Physcomitrella patens; experiment: Protonema growth of moss; type: in vivo; conditions: 200 μM for 10 days
Protocol: FIG. 17A-FIG. 17D. The effect of ABA and its agonists in Physcomitrella patens and Chlamydomonas. Protonemal growth images (A) and quantitative analysis (B) of the effects of ABA and agonists on Phsycomitrella patens. Protonema were grown on 200 μM of specific test chemical for 10 days. […] Pyrabactin bleached protonema. (C) The expression of ABA-responsive genes of Physcomitrella patens. Protonema were treated with 200 μM chemical solutions for 3 h. (D) Colony growth of Chlamydomonas on the chemical with salinity stress and osmotic stress. There was no effect of ABA and LC66C6 on the Chlamydomonas growth with and without stresses.

[2] = system: ABA-responsive genes; experiment: Quantitative RT-PCR of ABA-responsive genes in Arabidopsis; type: in vivo; conditions: for Induction of MAPKKK18, RD29A and RD29B mRNAs: Col and Ler ecotypes and pyr1, pyl1, pyl2, pyl3, pyl4 single mutants; for Expression of ABF3, GBF3, NCED3 and RD29A: Col wild-type plants; for Expression of RD29B and MAPKKK18 mRNA: wild-type plants
Protocol: FIG. 9A-FIG. 9D. LC66C6 induces numerous ABA-responsive genes. […] Ten-day old seedlings were treated with carrier solvent (DMSO) or either 25 μM ABA, pyrabactin or LC66C6 for 8 hours. Total RNA was then prepared labeled and hybridized to ATH1 microarrays. Data plotted are log 2 transformed average expression values for ˜13K probes that were detectable across all experiments. Data shown are averages determined from triplicate biological replicates. (C) and (D) show the expression of a reporter gene in different plant tissues after treatment with vehicle (DMSO), pyrabactin, LC66C6, or (+)-ABA.
FIG. 10. ABA-responsive gene expression in PYR/PYL single mutants. The response of the ABA-responsive MAPKKK18, RD29A, and RD29B mRNAs to LC66C6, ABA and pyrabactin were characterized in the Col and Ler ecotypes and the pyr1, pyl1, ply2, pyl3 and pyl4 single mutant genotypes.
FIG. 11. LC66C6 induces ABA-responsive gene expression in wild-type plants, abi1-1 and PYR/PYL quadruple mutants.
Total RNA was isolated using Plant RNA purification reagent (Invitrogen, USA) according to the manufacturer's instructions. cDNA was synthesized from 1 μg of total RNA using the QantiTec reverse transcription kit (Qiagen, USA). Real-time PCR using Maxima® SYBR Green/Fluorescein qPCR Master Mix (Fermentas) was performed with the iQ5 real-time PCR detection system (Bio-Rad, Hercules, Calif.). The relative amounts of target mRNAs were determined using the relative standard curve method and were normalized by relative amount of internal control mRNA. Biological triplicate experiments were performed.

[3] = system: PYR/PYL receptors and the PP2C HAB1; experiment: Yeast two-hybrid agonist assay (screens and receptor sensitivity); type: cell-based, Arabidopsis; conditions: 5 μM of test chemicals
Protocol: FIG. 1A-FIG. 1B. Novel ABA agonists bind to multiple PYR/PYL. (A) Chemical structure of naturally occurring (+)-ABA, its (−)analog and selected ABA agonists. (B) Yeast two-hybrid agonist assays of PYR/PYL receptor sensitivity to 5 μM of test chemicals. Specific PYR/PYL Receptors and the PP2C HAB1 are expressed as Ga14 BD or AD fusion proteins respectively, as described in the text.
A previously described yeast two-hybrid system was used in high throughput screens (HTS) to identify ABA agonists (see, Peterson F C, et al. (2010) Structural basis for selective activation of ABA receptors. Nature Structural & Molecular Biology 17(9):1109-1111). In this system the agonist promoted receptor-PP2C interaction drives expression of a URA3 or HIS3 reporter gene and rescues uracil or histidine auxotrophy of parental strains (Peterson F C, et al. (2010); Vidal M, Brachmann R K, Fattaey A, Harlow E, & Boeke J D (1996) Reverse two-hybrid and one-hybrid systems to detect dissociation of protein-protein and DNA-protein interactions. Proceedings of the National Academy of Sciences of the United States of America 93(19):10315-10320). […]

| Compound | Growth of protonema [1] | Induction of MAPKKK18, RD29A and RD29B mRNAs [2] | Expression of ABF3, GBF3, NCED3 and RD29A [2] | Expression of RD29B and MAPKKK18 mRNA [2] | Agonist activity and receptor selectivity in yeast two-hybrid assay [3] |
| --- | --- | --- | --- | --- | --- |
| CCCN1C(=O)CCc2cc(NS(=O)(=O)Cc3ccc(C)cc3)ccc21 [LC66C6] | weak but significant inhibition | induced | induced expression of ABF3, GBF3, NCED3, and RD29A in a dose dependent manner | induced the expression of RD29B and MAPKKK18 mRNA in a dose dependent manner in wild-type plants | agonist of multiple PYR/PYL receptors |
| O=S(=O)(NCc1ccccn1)c1ccc(Br)c2ccccc12 [pyrabactin, reference compound] | bleached the protonema | did not significantly induce expression | did not induce significant expression | did not induce gene expression in wild-type plants | much greater receptor selectivity than ABA or the new agonist LC66C6 |
